Assay results from ChEMBL document CHEMBL1201862, “PubChem BioAssay data set” (2004).
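Compound exposure: 48 hours, 5 concentrations, 96-well plates. GI50 = concentration required for 50% inhibition of growth.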 The source made the active and inactive calls. Cut-off read from the data, not from the text of the source: active = GI50 up to about 1.1 µM and inactive = higher.

What was measured:
Test in all cases: inhibition of tumour cell growth, NCI panel, 48 h
HCC 2998 = test system: HCC 2998
UACC-257 = test system: UACC-257
DU-145 = test system: DU-145
786-0 = test system: 786-0
CCRF-CEM = test system: CCRF-CEM
SN12C = test system: SN12C
A549 = test system: A549
NCI-H522 = test system: NCI-H522
HL-60 = test system: HL-60
MDA-MB-435 = test system: MDA-MB-435
SF-295 = test system: SF-295
T47D = test system: T47D
HOP-92 = test system: HOP-92
OVCAR-5 = test system: OVCAR-5
MOLT-4 = test system: MOLT-4
COLO 205 = test system: COLO 205
SF-539 = test system: SF-539
SK-MEL-2 = test system: SK-MEL-2
NCI/ADR-RES = test system: NCI/ADR-RES
TK-10 = test system: TK-10

Row | SMILES | GI50 (HCC 2998) | GI50 (UACC-257) | GI50 (DU-145) | GI50 (786-0) | GI50 (CCRF-CEM) | GI50 (SN12C) | GI50 (A549) | GI50 (NCI-H522) | GI50 (HL-60) | GI50 (MDA-MB-435) | GI50 (SF-295) | GI50 (T47D) | GI50 (HOP-92) | GI50 (OVCAR-5) | GI50 (MOLT-4) | GI50 (COLO 205) | GI50 (SF-539) | GI50 (SK-MEL-2) | GI50 (NCI/ADR-RES) | GI50 (TK-10)
1 | Cc1cn(Cc2ccccc2CCl)c(=O)[nH]c1=O | 15.3 µM (inactive) | 13.4 µM (inactive) | 13.1 µM (inactive) | 14.2 µM (inactive) | 4.58 µM (inactive) | 12.6 µM (inactive) | 16.9 µM (inactive) | 6.34 µM (inactive) | 3.08 µM (inactive) | 11.5 µM (inactive) | 13.8 µM (inactive) | 11.5 µM (inactive) | 25.4 µM (inactive) | 23.3 µM (inactive) | 3.15 µM (inactive) | 17.1 µM (inactive) | 5.56 µM (inactive) | 14.3 µM (inactive) | 18.2 µM (inactive) | 15.3 µM (inactive)
2 | CCC1C(c2cc(OC)c(OC)c(OC)c2)c2cc3c(cc2OC1N1CCCC1)OCO3 (stereo not given) | 2.74 µM (inactive) | 4.59 µM (inactive) | 2.37 µM (inactive) | 3.07 µM (inactive) | 1.16 µM (inactive) | 4.36 µM (inactive) | 2.76 µM (inactive) | 2.29 µM (inactive) | 1.57 µM (inactive) | 0.277 µM (active) | 1.07 µM (active) | 3.78 µM (inactive) | 4.18 µM (inactive) | 8.49 µM (inactive) | 1.95 µM (inactive) | 1.55 µM (inactive) | 1.39 µM (inactive) | 1.98 µM (inactive) | 1.41 µM (inactive) | 7.91 µM (inactive)
3 | Cc1ccc(S(=O)(=O)OI(O)CC(F)(F)F)cc1 | > 100 µM (inactive) | > 100 µM (inactive) | > 100 µM (inactive) | > 100 µM (inactive) | > 100 µM (inactive) | > 100 µM (inactive) | > 100 µM (inactive) | 91.8 µM (inactive) | > 100 µM (inactive) | > 100 µM (inactive) | > 100 µM (inactive) | > 100 µM (inactive) | > 100 µM (inactive) | > 100 µM (inactive) | > 100 µM (inactive) | > 100 µM (inactive) | > 100 µM (inactive) | > 100 µM (inactive) | > 100 µM (inactive) | > 100 µM (inactive)
4 | Cc1cccc(NC(=O)c2cccc([N+](=O)[O-])c2O)c1C | 28.4 µM (inactive) | 24.9 µM (inactive) | 37.3 µM (inactive) | 37.7 µM (inactive) | 14.9 µM (inactive) | 27.4 µM (inactive) | 21.5 µM (inactive) | 16.8 µM (inactive) | 13.4 µM (inactive) | 29.2 µM (inactive) | 24.4 µM (inactive) | 24.9 µM (inactive) | 16.4 µM (inactive) | 30.6 µM (inactive) | 19.4 µM (inactive) | 18.1 µM (inactive) | 27.5 µM (inactive) | 4.92 µM (inactive) | 16.5 µM (inactive) | 53.6 µM (inactive)
5 | Cc1cc(=O)[nH]c2cc(NC(=O)C(C)NC(=O)C(C)NC(=O)C(C)NC(=O)OC(C)(C)C)ccc12 (stereo not given) | > 15 µM (inactive) | > 15 µM (inactive) | > 15 µM (inactive) | > 15 µM (inactive) | > 15 µM (inactive) | > 15 µM (inactive) | > 15 µM (inactive) | > 15 µM (inactive) | > 15 µM (inactive) | > 15 µM (inactive) | > 15 µM (inactive) | > 15 µM (inactive) | > 15 µM (inactive) | > 15 µM (inactive) | > 15 µM (inactive) | > 15 µM (inactive) | > 15 µM (inactive) | > 15 µM (inactive) | > 15 µM (inactive) | > 15 µM (inactive)
6 | O=C(O)c1ccccc1Sc1ccccc1[N+](=O)[O-] | > 100 µM (inactive) | > 100 µM (inactive) | > 100 µM (inactive) | > 100 µM (inactive) | > 100 µM (inactive) | > 100 µM (inactive) | > 100 µM (inactive) | > 100 µM (inactive) | > 100 µM (inactive) | > 100 µM (inactive) | > 100 µM (inactive) | > 100 µM (inactive) | > 100 µM (inactive) | > 100 µM (inactive) | > 100 µM (inactive) | > 100 µM (inactive) | > 100 µM (inactive) | > 100 µM (inactive) | > 100 µM (inactive) | > 100 µM (inactive)
7 | CCOC(=O)C1C(c2ccc(O)c(OC)c2)c2c(n[nH]c2O)CC1(C)O (stereo not given) | > 100 µM (inactive) | > 100 µM (inactive) | > 100 µM (inactive) | > 100 µM (inactive) | > 100 µM (inactive) | > 100 µM (inactive) | > 100 µM (inactive) | > 100 µM (inactive) | > 100 µM (inactive) | > 100 µM (inactive) | > 100 µM (inactive) | > 100 µM (inactive) | > 100 µM (inactive) | > 100 µM (inactive) | > 100 µM (inactive) | > 100 µM (inactive) | > 100 µM (inactive) | > 100 µM (inactive) | > 100 µM (inactive) | > 100 µM (inactive)
8 | O=C(/C=C/c1ccccc1)CCN1CCN(CCC(=O)/C=C/c2ccccc2)CC1 | 16.7 µM (inactive) | 11.5 µM (inactive) | 17.6 µM (inactive) | 6.05 µM (inactive) | 3.29 µM (inactive) | 10.1 µM (inactive) | 30.9 µM (inactive) | 13.2 µM (inactive) | 3.64 µM (inactive) | 3.72 µM (inactive) | 17.2 µM (inactive) | 14.9 µM (inactive) | 19.6 µM (inactive) | 16.7 µM (inactive) | 4.47 µM (inactive) | 16.4 µM (inactive) | 14.9 µM (inactive) | 17.9 µM (inactive) | 24.7 µM (inactive) | 16.4 µM (inactive)
9 | O=c1[nH]nc(-c2cccc(Br)c2)[nH]1 | > 100 µM (inactive) | > 100 µM (inactive) | > 100 µM (inactive) | > 100 µM (inactive) | > 100 µM (inactive) | > 100 µM (inactive) | > 100 µM (inactive) | > 100 µM (inactive) | > 100 µM (inactive) | > 100 µM (inactive) | > 100 µM (inactive) | > 100 µM (inactive) | > 100 µM (inactive) | > 100 µM (inactive) | > 100 µM (inactive) | > 100 µM (inactive) | > 100 µM (inactive) | > 100 µM (inactive) | > 100 µM (inactive) | > 100 µM (inactive)
10 | CCCCCCCCCCCCN(CC(O)C(O)C(OC1OC(CO)C(O)C(O)C1O)C(O)CO)C(=O)CCCCCCCCCCC (stereo not given) | 18.4 µM (inactive) | 20.9 µM (inactive) | 20.6 µM (inactive) | 19 µM (inactive) | 31.9 µM (inactive) | 22.1 µM (inactive) | 23.6 µM (inactive) | 24.1 µM (inactive) | 33.7 µM (inactive) | 16.8 µM (inactive) | 19 µM (inactive) | 28.1 µM (inactive) | 21.9 µM (inactive) | 41 µM (inactive) | 25.1 µM (inactive) | 20.4 µM (inactive) | 39.8 µM (inactive) | 23 µM (inactive) | 23.8 µM (inactive) | 16.3 µM (inactive)
11 | S=c1[nH]c2ccc(Br)cc2c(=S)s1 | 26.1 µM (inactive) | 23.5 µM (inactive) | 38.1 µM (inactive) | 30.8 µM (inactive) | 30.8 µM (inactive) | 19.9 µM (inactive) | 30.6 µM (inactive) | 25.1 µM (inactive) | 21.6 µM (inactive) | 23.2 µM (inactive) | 27.4 µM (inactive) | 22.5 µM (inactive) | 16.6 µM (inactive) | 19.2 µM (inactive) | 29.9 µM (inactive) | 16.4 µM (inactive) | 34.4 µM (inactive) | 20.6 µM (inactive) | 28.6 µM (inactive) | 32.9 µM (inactive)
12 | O=C1C(Br)=CC2(C=C1Br)CCNC1=C2C(=O)c2ncccc2C1=O | 1.98 µM (inactive) | 0.631 µM (active) | 1.68 µM (inactive) | 1.47 µM (inactive) | 1.58 µM (inactive) | 1.21 µM (inactive) | 1.44 µM (inactive) | 0.353 µM (active) | 1.06 µM (active) | 0.189 µM (active) | 1.37 µM (inactive) | 1.97 µM (inactive) | 1.82 µM (inactive) | 1.67 µM (inactive) | 1.83 µM (inactive) | 1.89 µM (inactive) | 0.318 µM (active) | 0.116 µM (active) | 1.82 µM (inactive) | 2.32 µM (inactive)
13 | O=C1OC(OC/C(Br)=C(\Br)COC2OC(=O)C(Cl)=C2Cl)C(Cl)=C1Cl (stereo not given) | 17.9 µM (inactive) | 9.68 µM (inactive) | 15.1 µM (inactive) | 2.51 µM (inactive) | 0.659 µM (active) | 5.64 µM (inactive) | 14.9 µM (inactive) | 1.71 µM (inactive) | 0.324 µM (active) | 7.24 µM (inactive) | 18.3 µM (inactive) | 12.6 µM (inactive) | 1.05 µM (active) | 12.9 µM (inactive) | 0.807 µM (active) | 1.67 µM (inactive) | 6.89 µM (inactive) | 19.5 µM (inactive) | 4.92 µM (inactive) | 4.67 µM (inactive)
14 | Cc1ccc(S(=O)(=O)N/N=C/C(Br)=C(/Br)C(=O)O)cc1 | 4.29 µM (inactive) | 12.1 µM (inactive) | 12.2 µM (inactive) | 3.42 µM (inactive) | 1.42 µM (inactive) | 9.93 µM (inactive) | 19.5 µM (inactive) | 1.99 µM (inactive) | 1.93 µM (inactive) | 4.43 µM (inactive) | 14.1 µM (inactive) | 4.57 µM (inactive) | 11.3 µM (inactive) | > 19.7 µM (inactive) | 0.826 µM (active) | 3.44 µM (inactive) | 5.69 µM (inactive) | 14.6 µM (inactive) | 3.69 µM (inactive) | 7.69 µM (inactive)
